From publication PMC10999085, “Synthesis, anticancer evaluation, molecular docking and ADME study of novel pyrido[4ʹ,3ʹ:3,4]pyrazolo[1,5-a]pyrimidines as potential tropomyosin receptor kinase A (TrKA) inhibitors” (BMC Chemistry, 2024) come the findings set out here.

Each structure is given as a SMILES string. Converted amounts (≈) assume the structure as drawn.

One series concerns MCF7 cell line. The experiment in a line: MTT assay, MCF7 cell line. It counts as cell-based, human. The settings on record: 24 hr treatment, in % (unit assumed); for Cytotoxicity at 5 µg/l: MCF7, 5 µg/l; for Cytotoxicity at 10 µg/l: MCF7, 10 µg/l; for Cytotoxicity at 20 µg/l: MCF7, 20 µg/l. As for the experimental part:
(§1) Determination of the inhibitory effects of compounds on cell growth was performed through the MTT assay. This colorimetric assay is based on the conversion of the yellow tetrazolium bromide (MTT) to a purple formazan derivative by mitochondrial succinate dehydrogenase in viable cells. The protocol was discussed in details in Additional file 1.
(§2) Compounds 1, 4a,b, 7a–c, 7k, l, 9a–c, 14a, 15b, 16a–c were selected to be investigated against three human cancer cell lines MCF7, HepG2 and HCT116 cell lines using MTT assay using doxorubicin as the standard drug. Each point is the mean ± SD (standard deviation) of three independent experiments performed in triplicate, using the prism software program (integrated Graphpad software, version 3).
(§3) Cell lines were used to measure the cell growth effects of the compounds using the MTT assay. This colorimetric assay is depend on the conversion of the yellow tetrazolium bromide (MTT) to a purple formazan derivative by mitochondrial succinate dehydrogenase in living cells. Cell lines were cultured in RPMI-1640 medium supplemented with 10% fetal bovine serum. The antibiotics added were 100 units/ml penicillin and 100 µg/ml streptomycin at 37 °C in a 5% CO2 incubator. Cell lines were seeded in a 96-well plates at a density of 1.0x10^4 cells/well and cultured at 37 °C for 48 h under 5% CO2. After incubation, the cells were treated with different concentrations of compounds and incubated for 24 hr. After 24 hr of drug treatment, 20 µl of MTT solution at 5 mg/ml was added to each well and incubated for 4 hr. 100 µl of dimethyl sulfoxide (DMSO) was added into each well to dissolve the purple formazan formed. The colorimetric assay was measured and recorded at absorbance of 570 nm using a plate reader (EXL 800, USA). Relative cell viability (%) was calculated as (A570 of treated sample/A570 of untreated sample) x 100 [36, 37].
(In general: Tetrazolium assays rely on reduction of a dye to a coloured formazan, in cell work by metabolically active cells.)

The subject of another series is HepG2 cell line. The series is described as follows: MTT assay, HepG2 cell line. Type of series: cell-based, human. The conditions noted are these: MTT, 24 hr treatment, in % (unit assumed); for Cytotoxicity at 5 µg/l: HepG2, 5 µg/l; for Cytotoxicity at 10 µg/l: HepG2, 10 µg/l; for Cytotoxicity at 20 µg/l: HepG2, 20 µg/l. As for the experimental part: as §1, §2, §3

The subject of another series is HCT-116 cell line. The series is described as follows: MTT assay, HCT-116 cell line. It counts as cell-based, human. The conditions noted are these: for Cytotoxicity at 5 µg/l: HCT116, 5 µg/l; for Cytotoxicity at 5 µg/l / Cytotoxicity at 10 µg/l / Cytotoxicity at 20 µg/l: MTT, 24 hr treatment, in % (unit assumed); for Cytotoxicity at 10 µg/l: HCT116, 10 µg/l; for Cytotoxicity at 20 µg/l: HCT116, 20 µg/l. The protocol: as §1, §2, §3

The target in series [1] is T1, Tropomyosin receptor kinase A (TrKA) (Homo sapiens, UniProt P04629).
T1 construct: purchased
T1 sequence (P04629 33-796): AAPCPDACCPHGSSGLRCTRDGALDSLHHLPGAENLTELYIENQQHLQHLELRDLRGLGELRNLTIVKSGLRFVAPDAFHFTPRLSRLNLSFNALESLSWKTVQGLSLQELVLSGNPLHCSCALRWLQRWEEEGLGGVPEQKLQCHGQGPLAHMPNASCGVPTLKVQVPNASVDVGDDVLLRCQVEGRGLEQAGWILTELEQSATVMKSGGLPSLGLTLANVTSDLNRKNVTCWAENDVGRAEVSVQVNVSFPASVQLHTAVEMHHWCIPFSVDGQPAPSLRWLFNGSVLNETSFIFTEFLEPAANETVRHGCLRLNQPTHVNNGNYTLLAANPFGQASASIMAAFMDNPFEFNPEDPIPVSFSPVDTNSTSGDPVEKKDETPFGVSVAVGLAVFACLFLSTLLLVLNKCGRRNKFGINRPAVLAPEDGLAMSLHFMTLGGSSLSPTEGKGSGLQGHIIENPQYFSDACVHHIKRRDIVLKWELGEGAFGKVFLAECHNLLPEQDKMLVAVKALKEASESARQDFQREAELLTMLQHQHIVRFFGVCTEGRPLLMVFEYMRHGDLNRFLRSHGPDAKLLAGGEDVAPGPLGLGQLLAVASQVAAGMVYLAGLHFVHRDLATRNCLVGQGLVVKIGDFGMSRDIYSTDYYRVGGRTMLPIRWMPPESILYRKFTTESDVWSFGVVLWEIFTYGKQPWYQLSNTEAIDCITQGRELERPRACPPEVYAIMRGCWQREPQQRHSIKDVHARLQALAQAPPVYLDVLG
The series is described as follows: Tropomyosin receptor kinase A (TrKA) inhibitory assay (Kinase-Glo MAX kit). It counts as biochemical. The conditions noted are these: in vitro kinase assay, recombinant TrkA. An excerpt:
The TrkA assay Kit is designed to measure TrkA activity for screening and profiling applications using Kinase-Glo® MAX as a detection reagent. The TrkA Assay Kit comes in a convenient 96-well format, with enough purified recombinant TrkA enzyme, TrkA substrate, ATP and kinase assay buffer for 100 enzyme reactions. The method was discussed in details in the ESI.
The TrkA assay Kit is designed to measure TrkA activity for screening and profiling applications using Kinase-Glo® MAX as a detection reagent. The TrkA Assay Kit comes in a convenient 96-well format, with enough purified recombinant TrkA enzyme, TrkA substrate, ATP and kinase assay buffer for 100 enzyme reactions.
The assay protocol: all samples and controls should be tested in duplicate. Dissolve 5x Kinase Assay Buffer 1, ATP, and PTK Substrate Poly (Glu:Tyr 4:1) (10 mg/ml). 2). The master mixture (25 μl per well) was prepared by N wells x (6 μl 5x Kinase Assay Buffer 1 + 1 μl ATP (500 μM) + 1 μl PTK Substrate Poly (Glu:Tyr 4:1) (10mg/ml) + 17 μl water). Add 5 μl of Inhibitor solution of each well labeled as “Test Inhibitor”. For the “Positive Control" and “Blank”, add 5 μl of the same solution without inhibitor (Inhibitor buffer). Prepare 3 ml of 1x Kinase assay buffer 1 by mixing 600 μl of 5x Kinase assay buffer 1 with 2400 μl water 3 ml of 1x Kinase assay buffer is sufficient for 100 reactions. To the wells designated as "Blank", add 20 μl of 1x Kinase assay buffer 1and thaw TrkA enzyme on ice. Upon first thaw, briefly spin tube containing enzyme to recover full content of the tube. Calculate the amount of TrkA required for the assay and dilute enzyme to 5 ng/μl with 1x Kinase assay buffer. Store remaining undiluted enzyme in aliquots at -80°C. Then initiate reaction by adding 20 μl of diluted TrkA enzyme to the wells designated “Positive Control” and "Test Inhibitor Control". Incubate at 30°C for 45minutes and thaw Kinase-Glo Max reagent. After the 45 minute reaction, add 50 μl of Kinase-Glo Max reagent to each well. Cover plate with aluminum foil and incubate the plate at room temperature for 15 minutes. Immediately read sample in a luminometer or microtiter-plate capable of reading chemiluminescence. “Blank” value is subtracted from all readings.
A general note: In Kinase-Glo more light means more ATP remaining.

Turning to `COc1ccc(N/N=C2\C(=O)NC(=O)c3c2nn2c(C)cc(C)nc32)cc1` [Compound 9c, 7-(2-(4-Methoxyphenyl)hydrazono)-2,4-dimethylpyrido[4ʹ,3ʹ:3,4]pyrazolo[1,5-a]pyri-midine-8,10(7H,9H)-dione], the melting point came out at 305 °C. For the same compound, in the series with MCF7 cell line, the “Cytotoxicity at 5 µg/l” value was 38.17, the “Cytotoxicity at 10 µg/l” value came to 53.72 and the “Cytotoxicity at 20 µg/l” value is reported as 87.32. Also, in the series with HepG2 cell line, the “Cytotoxicity at 5 µg/l” value is on record as 42.88, the “Cytotoxicity at 10 µg/l” value stood at 50.63 and the “Cytotoxicity at 20 µg/l” value stood at 86.55. In the series on HCT-116 cell line, the “Cytotoxicity at 5 µg/l” value came to 59.74, the “Cytotoxicity at 10 µg/l” value came out at 67.13 and the “Cytotoxicity at 20 µg/l” value was 89.80. Also, in series [1], the IC50 was 434 nM.

Turning to `Cc1cc(C)n2nc3c(c2n1)C(=O)NC(=O)C3=Cc1ccc(Cl)cc1` [Compound 7c], the melting point is 260 °C. In addition, in the series with MCF7 cell line, the “Cytotoxicity at 5 µg/l” value is 40.12, the “Cytotoxicity at 10 µg/l” value is reported as 69.00 and the “Cytotoxicity at 20 µg/l” value was 92.48. Further, in the series with HepG2 cell line, the “Cytotoxicity at 5 µg/l” value stood at 35.08, the “Cytotoxicity at 10 µg/l” value came to 41.65 and the “Cytotoxicity at 20 µg/l” value is on record as 67.89. Moreover, in the series with HCT-116 cell line, the “Cytotoxicity at 5 µg/l” value came out at 50.56, the “Cytotoxicity at 10 µg/l” value amounted to 68.21 and the “Cytotoxicity at 20 µg/l” value is 68.85. In addition, the IC50 in the series with HCT-116 cell line (Homo sapiens, HCT-116, HCT116, MTT, read-out: IC50 (drug concentration that inhibited 50% of cell proliferation)) came to 4.07 ng/mL (≈ 0.0115 µM).

Compound `Cc1ccc(NN=C2C(=O)NC(=O)c3c2nn2c(C)cc(C)nc32)cc1` [Compound 9b, 2,4-Dimethyl-7-(2-(p-tolyl)hydrazono)pyrido[4ʹ,3ʹ:3,4]pyrazolo[1,5-a]pyrimidine-8,10(7H,9H)-dione] came in with a melting point of 285 °C. In addition, in the series on MCF7 cell line, the “Cytotoxicity at 5 µg/l” value is given as 33.82, the “Cytotoxicity at 10 µg/l” value is given as 51.19 and the “Cytotoxicity at 20 µg/l” value is reported as 72.13. Also, in the series on HepG2 cell line, the “Cytotoxicity at 5 µg/l” value stood at 8.46, the “Cytotoxicity at 10 µg/l” value came out at 33.81 and the “Cytotoxicity at 20 µg/l” value stood at 73.11. Also, in the series on HCT-116 cell line, the “Cytotoxicity at 5 µg/l” value is listed as 22.09, the “Cytotoxicity at 10 µg/l” value came out at 40.50 and the “Cytotoxicity at 20 µg/l” value turned out to be 59.80.

Regarding `Cc1cc(C)n2nc3c(c2n1)C(=O)NC(=O)C3` [Compound 4a, 2,4-Dimethylpyrido[4ʹ,3ʹ:3,4]pyrazolo[1,5-a]pyrimidine-8,10(7H,9H)-diones], the melting point was 330 °C. For the same compound, in the series with MCF7 cell line, the “Cytotoxicity at 5 µg/l” value was found to be 35.61, the “Cytotoxicity at 10 µg/l” value is on record as 74.99 and the “Cytotoxicity at 20 µg/l” value is on record as 84.71. Besides, in the series with HepG2 cell line, the “Cytotoxicity at 5 µg/l” value was 15.91, the “Cytotoxicity at 10 µg/l” value turned out to be 60.95 and the “Cytotoxicity at 20 µg/l” value is 82.16. Further, in the series with HCT-116 cell line, the “Cytotoxicity at 5 µg/l” value came out at 56.23, the “Cytotoxicity at 10 µg/l” value came to 71.78 and the “Cytotoxicity at 20 µg/l” value is 84.77.

For the compound `Cc1cc(C)n2nc3c(c2n1)C(=O)NC(=O)C3=NNc1ccccc1` [Compound 9a, 2,4-Dimethyl-7-(2-phenylhydrazono)pyrido[4ʹ,3ʹ:3,4]pyrazolo[1,5-a]pyrimidine-8,10(7H,9H)-dione], the melting point is 300 °C. In the series with MCF7 cell line, the “Cytotoxicity at 5 µg/l” value is given as 36.10, the “Cytotoxicity at 10 µg/l” value was found to be 49.11 and the “Cytotoxicity at 20 µg/l” value amounted to 75.34. Besides, in the series with HepG2 cell line, the “Cytotoxicity at 5 µg/l” value is on record as 13.11, the “Cytotoxicity at 10 µg/l” value worked out at 49.16 and the “Cytotoxicity at 20 µg/l” value came to 79.17. In addition, in the series on HCT-116 cell line, the “Cytotoxicity at 5 µg/l” value worked out at 34.38, the “Cytotoxicity at 10 µg/l” value came to 55.47 and the “Cytotoxicity at 20 µg/l” value worked out at 65.98.

Compound `Cc1ccc(NN=C2C(=O)NC(=O)c3c2nn2c(O)cc(C)nc32)cc1` [Compound 16b, 4-Hydroxy-2-methyl-7-(2-(p-tolyl)hydrazono)pyrido[4ʹ,3ʹ:3,4]pyrazolo[1,5-a]pyrimidine-8,10(7H,9H)-dione] had a melting point of 330 °C. For the same compound, in the series on MCF7 cell line, the “Cytotoxicity at 5 µg/l” value is 54.13, the “Cytotoxicity at 10 µg/l” value is 55.27 and the “Cytotoxicity at 20 µg/l” value is 80.56. For the same compound, in the series on HepG2 cell line, the “Cytotoxicity at 5 µg/l” value came to 18.01, the “Cytotoxicity at 10 µg/l” value came out at 42.54 and the “Cytotoxicity at 20 µg/l” value is given as 50.18. Also, in the series with HCT-116 cell line, the “Cytotoxicity at 5 µg/l” value is 23.18, the “Cytotoxicity at 10 µg/l” value came out at 52.73 and the “Cytotoxicity at 20 µg/l” value came to 85.28.

Take `COc1ccc(C=C2C(=O)NC(=O)c3c2nn2c(-c4ccccc4)cc(-c4ccccc4)nc32)cc1` [Compound 7l]: the melting point is 315 °C. Also, in the series with MCF7 cell line, the “Cytotoxicity at 5 µg/l” value was 40.19, the “Cytotoxicity at 10 µg/l” value was found to be 52.28 and the “Cytotoxicity at 20 µg/l” value is on record as 97.26. Moreover, in the series with HepG2 cell line, the “Cytotoxicity at 5 µg/l” value is given as 40.25, the “Cytotoxicity at 10 µg/l” value worked out at 71.84 and the “Cytotoxicity at 20 µg/l” value was determined as 96.62. Besides, in the series on HCT-116 cell line, the “Cytotoxicity at 5 µg/l” value is 57.14, the “Cytotoxicity at 10 µg/l” value is 61.58 and the “Cytotoxicity at 20 µg/l” value was determined as 91.59.

Compound `Cc1cc(C)n2nc3c(c2n1)C(=O)NC(=O)C3=Cc1ccccc1` [Compound 7a, 7-Benzylidene-2,4-dimethylpyrido[4ʹ,3ʹ:3,4]pyrazolo[1,5-a]pyrimidine-8,10(7H,9H)-dione] displayed a melting point of 240 °C. Also, in the series with MCF7 cell line, the “Cytotoxicity at 5 µg/l” value was 30.13, the “Cytotoxicity at 10 µg/l” value came to 45.66 and the “Cytotoxicity at 20 µg/l” value stood at 66.12. Also, in the series on HepG2 cell line, the “Cytotoxicity at 5 µg/l” value was 38.17, the “Cytotoxicity at 10 µg/l” value amounted to 42.56 and the “Cytotoxicity at 20 µg/l” value amounted to 76.04. For the same compound, in the series with HCT-116 cell line, the “Cytotoxicity at 5 µg/l” value was 50.82, the “Cytotoxicity at 10 µg/l” value was 84.52 and the “Cytotoxicity at 20 µg/l” value came out at 91.78.

As a reminder, the melting point is the temperature of the solid-liquid transition.
